The conditions of series [1]: in vivo; cited from earlier work.
For series [2], the system named is MDA-MB-468 cells. The settings on record: MDA-MB-468 with H-CAM blocking of CD44, p=0.065.
Experimental: Breast cancer MDA-MB-468 cells were maintained in Dulbecco's modified eagle medium supplemented with 10% fetal bovine serum (Hyclone Laboratory Inc., Logan, Utah). Cells were plated in white 96-well flat-bottomed plates at the concentration of 5,000 cells/well in 90 μL of growth medium. […] Hanks' solution and 10% trichloroacetic acid (TCA) were used as negative and positive control, respectively. The medium was refreshed 8 h after treatment. After 72 h post-treatment, resazurin blue (5 μM) was added and the resorufin product was measured with a fluorophotometer using an excitation wavelength of 550 nm and an emission wavelength of 590 nm.
In series [3] the test system is MDA-MB-468 cells. The conditions noted are these: 10 μM.
Experimental: Breast cancer cells, MDA-MB-468, were seeded in a 12-well plate at the concentration of 50,000 cells/well in 1 mL of growth medium. After 12 h incubation, 10 μL of human anti-CD44 antibody was added to each well.
The test system of the next series is 4T1.2neu breast cancer. The experiment in a line: Animal survival and tumor suppression study. The settings on record: for median survival time: 10 mg/kg equivalent rapamycin once per week for 3 weeks, free rapamycin i.p., HA-L-Rapa s.c., control 17 days.
Series [4] in a line: Pharmacokinetics study in rats. In kind it is in vivo, Sprague-Dawley rats. The protocol:
Whole blood was withdrawn (100 μL) from the tail vein at 0 min, 5 min, 30 min, 1 h, 2 h, 4 h, 6 h, 12 h, 24 h and 48 h after dosing and placed in heparinized tubes (BD Vacutainer® Lithium Heparin 37 USP unit, BD Franklin Lakes, N.J.). The whole blood was centrifuged at 15,000×g for 10 min, and the plasma was frozen at −80° C. until analyzed. The animal use statement was approved by the University of Kansas Institutional Animal Care and Use Committee. Plasma samples and stander curves were prepared using a procedure reported previously.

The nature of series [5]: Tissue distribution in tumor-bearing mice. The series is classed as in vivo, BALB/c mice. The conditions noted are these: for concentration at 12 h: female, BALB/c, mouse, intraperitoneal, 10 mg/kg. As for the experimental part: Drug tissue distribution was determined in female BALB/c mice (n=5). Tissue samples (50 mg) in 500 μL PBS were homogenized using a Tissue Tearor (BioSpec Products, Inc., Bartivesville, Okla.). The homogenized tissue was mixed with 250 μL ZnSO4 and 500 μL methanol. The mixture solution was centrifuged and the supernatant was analyzed by LC/MS.
In the tissue distribution study, BLAB/c mice were administered the drugs 12 h before being euthanized. Major organs (liver, kidneys, hear, spleen, lungs, brain, muscle), tumor and lymph nodes were excised and lightly washed with PBS. The organs were stored at −80° C. until analyzed by LC/MS.

For series [6] the following is noted: i.v., rats, own previous studies; cited from earlier work.
The conditions of series [7]: mice, 2 mg/kg; cited from earlier work.
The conditions of series [8]: cited from earlier work.
For series [9] the following is noted: Stak (US 20110201639 A1) for tacrolimus; cited from earlier work.
Where [10] appears, read: female, Sprague-Dawley, rat, plasma, ip, 10 mg/kg.

On to hyaluronic acid, for which, in series [1], the turnover half-life is 12 to 72 h.

“HA-Rapamycin-42-(3′-amino-4′-methoxy)benzoate [HA-L-Rapa]”: the “cell viability compared to the free drug” value in the series with MDA-MB-468 cells [2] is on record as “no significant difference”. Also, in the series with MDA-MB-468 cells [3] (CD44 blocked with H-CAM, p=0.13), the “rapamycin uptake compared to the free drug” value is “no difference”. Also, the “drug uptake compared to free rapamycin” value in the series on MDA-MB-468 cells [3] (CD44 positive cells, p=0.012) worked out at 3.2 times. Also, the “tumor volume on day 20 compared with the control group” value with 4T1.2neu breast cancer (10 mg/kg equivalent rapamycin) is listed as “significant decrease”. Besides, the median survival time with 4T1.2neu breast cancer is reported as 22 days. Also, the “lung metastases observed at necropsy (animals of group)” value in the series with 4T1.2neu breast cancer (4T1.2neu model, n=5) was 1/5. Also, in the series with 4T1.2neu breast cancer (BALB/c mice with 4T1.2neu breast cancer), the “survival compared with control” value is “significantly longer survival”. Moreover, in the series on 4T1.2neu breast cancer (mammary carcinoma bearing mice), the “incidence of ulcerated tumor” value is listed as “diminished the incidence of ulcerated tumor” and the “tumor growth compared to the non-treatment group” value was “significantly inhibited tumor growth”.

As a reminder, the AUC(0-inf) is total exposure, with the tail of the curve extrapolated. The low end stands for less exposure, the high end for more exposure. One may read the Cmax as the maximum level reached in the sampled fluid or tissue. As usually defined, the half-life is the time needed for the level to fall by half in the phase considered. High values mean slow loss, low ones fast loss. One may read the mortality as the share of the test organisms that died. In series [4] (setting [10]), `CO[C@H]1C[C@@H]2CC[C@@H](C)[C@@](O)(O2)C(=O)C(=O)N2CCCC[C@H]2C(=O)O[C@H]([C@H](C)C[C@@H]2CC[C@@H](O)[C@H](OC)C2)CC(=O)[C@H](C)/C=C(\C)[C@@H](O)[C@@H](OC)C(=O)[C@H](C)C[C@H](C)/C=C/C=C/C=C/1C` [rapamycin] came in with an AUC(0-inf) of 2360 ± 460 ng·h/mL. This molecule registered a peak concentration (Cmax) in [4] (setting [10]) of 173 ± 69.1 ng/mL. The molecule further showed a half-life in series [4] (setting [10]) of 10.4 ± 3.76 h. The Vd in series [4] (rats, free rapamycin i.p., HA-L-Rapa s.c., 10 mg/kg equivalent rapamycin, Mean ± SD, n=3) came to 37.68 ± 15.49 L/kg. Also, in series [4] (rats, free rapamycin i.p., HA-L-Rapa s.c., Mean ± SD, n=3), the CI is 70.5 ± 15.8 mL/min/kg. Also, the concentration at 12 h was found to be 108 ± 37.4 ng/g in series [5] (brain); 441 ± 81.6 ng/g in [5] (heart); 469 ± 27.3 ng/g in series [5] (kidneys); 379 ± 40.6 ng/g in series [5] (liver); 618 ± 299 ng/g in [5] (lungs); 705 ± 116 ng/g in series [5] (lymph nodes). In addition, the results for the concentration at 12 h in series [5] (muscle) and in series [5] (spleen) were 316 ± 154 ng/g and 183 ± 66.5 ng/g, respectively. Further, the Mean concentration of rapamycin in Tumor in [5] (mice, 12 h post 10 mg/kg equivalent rapamycin, i.p. (free rapamycin), s.c. (HA-L-Rapa), Mean ± SD, n=5) was 1240 ± 256 ng/g. Besides, the mortality in [6] is 40%. Besides, the “skin finding after subcutaneous administration” value in [7] is on record as “skin ulceration”. The “findings after i.v. administration” value in series [8] is “injury (swelling and focal lesion) at the injection site, lymphoid atrophy and periarterial edema in the heart, liver”. The “stability at alkaline pH conditions” value in [9] was “degrade rapamycin rapidly in hours or less”. Besides, the median survival time with 4T1.2neu breast cancer was 15 days.

Take `C=CC[C@@H]1/C=C(\C)C[C@H](C)C[C@H](OC)[C@H]2O[C@@](O)(C(=O)C(=O)N3CCCC[C@H]3C(=O)O[C@H](/C(C)=C/[C@@H]3CC[C@@H](O)[C@H](OC)C3)[C@H](C)[C@@H](O)CC1=O)[C@H](C)C[C@@H]2OC` [tacrolimus]: the “stability at alkaline pH conditions” value in series [9] was “stable at alkaline pH conditions for over a week”.

These data come from patent publication US20160279108A1, “TARGETED MTOR INHIBITORS” (UNIVERSITY OF KANSAS, priority 2015, published 2016).
